Measurements published in patent publication US20160368873A1, “Optically Active Form of Mepenzolate, and Ameliorating Agent for Chronic Obstructive Pulmonary Disease Which Contains Same as Active Ingredient” (LTT BIO-PHARMA CO., LTD., priority 2014, published 2016).

Columns and labels:
[1] = Concentration in lung tissue after airway administration (Test Example 1); type: in vivo; conditions: ICR mice, airway administration 20 mg/kg, chiral HPLC
Protocol: The test samples were divided into 300 μL aliquots and subjected to ultrafiltration using an Amicon ultra-0.5 centrifugal filter.
The HPLC conditions were as follows.
Detector: Waters 2695 Alliance separation module and Waters 2996 photodiode array detector (manufactured by Waters Corporation)
Eluent: Solvent A (Water containing 0.1 M hexafluorophosphate)/Solvent B (acetonitrile)
Mobile Phase: 70% Solvent A/30% Solvent B
Measuring wavelength: 220 nm

[2] = target: T1, human M3 muscarinic receptor (Homo sapiens, UniProt P20309); experiment: Receptor binding ability (in vitro) (1), [3H]NMS competitive inhibition (Test Example 2.1); conditions: CHO-K1 membrane fraction, 2.0 nM [3H]NMS
T1 construct: expressed in transfected cells; host or cells: CHO-K1 cells (membrane fraction)
Protocol: Nonspecific binding was measured in the presence of 1 μM atropine.
The resulting filter, which was dried and a solid scintillator, MeltiLex A (manufactured by PerkinElmer, Inc.) was melted thereon, was measured and quantified by using a β-counter (MicroBeta microplate scintillation counter (Trilux: manufactured by PerkinElmer, Inc.).

ICR mice [3] = experiment: Effect on methacholine-induced airway constriction (1) (Test Example 3.1); type: in vivo; conditions: 3.75 μg/kg via the airway, 1 h before nebulized methacholine, FIG. 5
Protocol: (§1) Increase in airway resistance induced by methacoline was measured.
4 to 6 week old ICR mice received 1 mg/mL methacoline by nebulization over 20 seconds and this was repeated five times. After each administration of methacoline was completed, the airway resistance was measured by a snap shot technique. All the data were analyzed by using FlexiVent software.
(§2) One hour after administration, the mice received five exposures to nebulized methacoline by the above-mentioned method and the airway resistance at the time of each administration was measured.

ICR mice [4] = experiment: Effect on methacholine-induced airway constriction (2) (Test Example 3.2); type: in vivo; conditions: 3.8 μg/kg via the airway, 1 h before nebulized methacholine, FIG. 7
Protocol: as §1
4 to 6 week old ICR mice were anesthetized with chloral hydrate (500 mg/kg), a tracheostomy was performed, and a metal tube […] in diameter was inserted into the trachea.
The mice were mechanically ventilated at 150 respirations/minute with a displacement per one cycle of 8.7 mL/kg and a positive end-expiratory pressure of 2 to 3 cmH2O.
The mice were exposed to nebulized methacholine (5 mg/kg) for 20 seconds four times at intervals of 40 seconds to induce airway resistance by methacholine, and the airway resistance was measured by a snap shot technique.
as §2
The data were analyzed by using FlexiVent software.

ICR mice [5] = experiment: Effect on porcine pancreatic elastase (PPE)-induced inflammation (1) (Test Example 4.1); type: in vivo; conditions: 38 μg/kg via the airway once, PPE 100 μg per mouse 1 h later, BALF 24 h after PPE, FIG. 8
Protocol: Then, broncho alveolar lavage fluid (BALF) was collected from the lung 24 hours after administration of porcine pancreatic elastase and a total cell count and a neutrophil count were measured.

ICR mice [6] = experiment: Effect on porcine pancreatic elastase (PPE)-induced inflammation (2) (Test Example 4.2); type: in vivo; conditions: 7.5 μg/kg and 38 μg/kg via the airway once, PPE 20 U/kg 1 h later, BALF 6 h after PPE; for Total cell count in BALF: FIG. 9; for Neutrophil count in BALF: FIG. 10
Protocol: Then, broncho alveolar lavage fluid (BALF) was collected from the lung 6 hours after administration of porcine pancreatic elastase. The BALF was collected by washing the lung twice with saline containing heparin (50 U/mL) with the aid of a tracheostomy tube.
A total cell count of the collected BALF was measured by hemocytometer. The cells were centrifuged by using Cytospin 4 (registered trademark, manufactured by Thermo Electron Corporation) and then fixed with Diff-Quik reagent, and the neutrophil count was determined on the basis of the ratio of the neutrophil count to the total cell count.

ICR mice [7] = experiment: Effect on PPE-induced inflammation (3), cytokine and chemokines in BALF by ELISA (Test Example 4.3); type: in vivo; conditions: 38 μg/kg via the airway, PPE 20 U/kg, FIGS. 11 to 14
Protocol: The levels of cytokine and chemokine in broncho alveolar lavage fluid (BALF) were measured as indications of an effect on PPE-induced inflammation.
Specifically, TNF-α ([…]), which is a pro-inflammatory cytokine, was measured as a cytokine that is an inflammatory factor and a macrophage inflammatory protein (MIP-2), a monocyte chemotactic protein (MCP-1), and a keratinocyte-derived chemokine (KC) were measured as an inflammatory chemokine.
The measurement of such a cytokine and chemokines in the BALF was performed by ELISA.

ICR mice [8] = experiment: Fecal pellet output (level of constipation occurrence) after application of stress (Test Example 5); type: in vivo; conditions: 4.7 mg/kg intratracheally, 1 h later one-hour restraint stress, FIG. 15
Protocol: 4 to 6 week old ICR mice were put under stress by placing the mice in a 50 mL tube for one hour, the tube ensuring free breathing but restraining free movement, and the fecal pellet output (the level of constipation occurrence) at that time was measured.
The level of constipation occurrence was monitored by measuring the fecal pellet output during the above-mentioned period.

[9] = target: T2, human M3 muscarinic receptor (hM3R) (Homo sapiens, UniProt P20309); experiment: Receptor binding ability (in vitro) (2), [3H]NMS competitive inhibition, hM3R (Test Example 2.2); conditions: Table 2 and FIG. 3, compared to (R)-mepenzolate bromide and the racemate
T2 construct: expressed in transfected cells; host or cells: CHO-K1 cells (membrane fraction)
T2 sequence (P20309 whole entry): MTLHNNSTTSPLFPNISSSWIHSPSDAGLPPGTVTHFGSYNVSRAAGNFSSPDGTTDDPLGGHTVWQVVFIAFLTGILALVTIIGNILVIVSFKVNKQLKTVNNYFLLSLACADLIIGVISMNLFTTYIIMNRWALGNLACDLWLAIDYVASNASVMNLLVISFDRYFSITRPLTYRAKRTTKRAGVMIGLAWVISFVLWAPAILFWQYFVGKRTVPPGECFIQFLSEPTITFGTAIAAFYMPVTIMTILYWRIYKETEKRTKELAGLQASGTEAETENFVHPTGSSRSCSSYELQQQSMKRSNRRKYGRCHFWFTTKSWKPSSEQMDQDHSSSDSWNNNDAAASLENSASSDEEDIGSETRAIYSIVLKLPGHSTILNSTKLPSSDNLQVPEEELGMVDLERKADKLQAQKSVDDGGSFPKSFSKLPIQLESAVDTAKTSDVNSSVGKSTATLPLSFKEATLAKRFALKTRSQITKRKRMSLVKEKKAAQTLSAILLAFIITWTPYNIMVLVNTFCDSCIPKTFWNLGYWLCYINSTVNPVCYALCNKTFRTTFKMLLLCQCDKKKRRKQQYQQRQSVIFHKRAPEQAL
Protocol: Membrane fractions of CHO—K1 cells overexpressing a human M3 muscarinic receptor (hM3R) or CHO—K1 cells overexpressing a human M2 muscarinic receptor (hM2R) were used to measure receptor binding ability by competitive inhibition assay with 1-[N-methyl-^3H]scopolamine methyl bromide ([^3H]NMS, specific activity: 85.5 Cimmol). The protein concentration of the cell membrane was 10.0 μg/well and the [^3H]NMS concentration was 2.0 nM.
A binding buffer (phosphate buffer/saline) was added to the reagents to make a total volume of 200 μL. […]
The resulting filter was dried for 30 minutes, and then, fixed to a solid scintillator, MeltiLex A (melt-on scintillation sheet; manufactured by PerkinElmer, Inc.). The radioactivity remaining on the filter was measured in a MicroBeta Trilux microplate scintillation counter (manufactured by PerkinElmer, Inc.).
An experimental IC50 was calculated by using an experimentally obtained constant (κd) of [^3H]NMS for hM3R or hM2R and the concentration thereof, and then, the affinity at equilibrium was determined as a competitive equilibrium dissociation constant (κi) value. In this regard, the κi value was calculated from three individual curves and modified by using Prism (produced by GraphPad Software, Inc.).

T1 sequence (P20309 whole entry): as above

| SMILES | Concentration in lung tissue, (R)-Mep, 5 min. ([1]; 5 min after administration, (R)-Mep detected) [μg/lung] | Concentration in lung tissue, (R)-Mep, 15 min. ([1]; 15 min after administration, (R)-Mep detected) [μg/lung] | Concentration in lung tissue, (R)-Mep, 30 min. ([1]; 30 min after administration, (R)-Mep detected) [μg/lung] | Binding to the M3 receptor (FIG. 1), in words [2] | Effect of suppressing airway resistance (methacholine-induced) (ICR mice [3]) | Effect of suppressing airway resistance (methacholine-induced), low dose (ICR mice [4]) | Neutrophil count in BALF (ICR mice [5]) | Total cell count in BALF (ICR mice [5]) | Total cell count in BALF (ICR mice [6]) | Neutrophil count in BALF (ICR mice [6]) | Inflammatory factors in BALF (TNF-α, MIP-2, MCP-1, KC) (ICR mice [7]) | Level of constipation occurrence (fecal pellet output) (ICR mice [8]) | Concentration in lung tissue, (S)-Mep, 5 min. ([1]; 5 min after administration, (S)-Mep detected) [μg/lung] | Concentration in lung tissue, (S)-Mep, 15 min. ([1]; 15 min after administration, (S)-Mep detected) [μg/lung] | Concentration in lung tissue, (S)-Mep, 30 min. ([1]; 30 min after administration, (S)-Mep detected) [μg/lung] | Affinity to hM3R (M3 receptor), in words [9] |
| --- | --- | --- | --- | --- | --- | --- | --- | --- | --- | --- | --- | --- | --- | --- | --- | --- |
| C[N+]1(C)CCC[C@@H](OC(=O)C(O)(c2ccccc2)c2ccccc2)C1.[Br-] [R-form, (3R)-3-[(hydroxy) (diphenyl)acetoxy]-1,1-dimethylpiperidinium bromide] | 44.5 ± 11.5 | 6.3 ± 4.2 | 5.1 ± 1.3 | bound strongly to the M3 receptor | significant effect of suppressing airway resistance | significant effect of suppressing airway resistance | relatively stronger effect of decreasing | relatively stronger effect of decreasing | effect of decreasing | effect of decreasing | decreased inflammatory factors effectively | highest level of constipation occurrence | – | – | – | – |
| C[N+]1(C)CCC[C@H](OC(=O)C(O)(c2ccccc2)c2ccccc2)C1.[Br-] [S-form, (3S)-3-[(hydroxy) (diphenyl)acetoxy]-1,1-dimethylpiperidinium bromide] | – | – | – | weaker binding ability | little effect | little effect | similarly effective | similarly effective | effect of decreasing | effect of decreasing | decreased inflammatory factors effectively | low level of constipation occurrence | 36.4 ± 9.5 | 7.6 ± 0.5 | 6.2 ± 0.4 | lower affinity |
| C[N+]1(C)CCC[C@@H](OC(=O)C(O)(c2ccccc2)c2ccccc2)C1.[Br-] (racemic) [racemate, mepenzolate bromide, reference compound] | – | – | – | bound strongly to the M3 receptor | – | – | similarly effective | similarly effective | effect of decreasing | effect of decreasing | decreased inflammatory factors effectively | – | – | – | – | – |
